SMILES	melting point [°C]
CCOC(=O)/C=C/c1cn(C)nc1OCc1ccc(OCc2nc(-c3ccco3)oc2C)c(OC)c1	135 to 136
CCNc1nc(=S)n(Cc2ccc(OC)c(OC3CCCC3)c2)c2nc[nH]c12	72 to 77
CN1C=C(C(=O)Nc2ccccc2)C(C(F)(F)F)N1CO (stereo not given)	191
COc1cc(C2C3=C(COC3=O)N(Cc3ccc([N+](=O)[O-])cc3)c3cc4c(cc32)OCO4)cc(OC)c1O (stereo not given)	193
CCOC(=O)COc1cccc2oc(-c3ccccc3)cc(=O)c12	89.5 to 90.5
COc1cccc(NN)n1	30 to 40
COc1ccc(CN2C(=O)C(C)(c3cc(NC(N)=O)ccc3Cl)c3cc(Cl)ccc32)c(OC)c1 (stereo not given)	254
O=c1[nH]c2ncc(-c3ccc4[nH]cnc4c3)nc2n1CCC1CCOCC1	264 to 265
Cc1ccccc1NC(=O)c1ccc(C(=O)N2Cc3ccccc3Cc3ccccc32)cc1	214 to 216
CC1=C(C(=O)OC(C)(C)C)C(c2cc(Br)ccc2F)C(C(=O)OC(C)(C)C)=C(C)N1	173 to 174
Nc1cccc(OC2CCCCO2)c1O (stereo not given)	163 to 166
O=c1[nH]c2ccccc2n1CCCCCCCl	80 to 84
CCC(NC(=S)NCc1ccc(C(C)(C)C)cc1)c1ccc(NS(C)(=O)=O)c(F)c1 (stereo not given)	85
O=C1C2C(C(=O)N1c1ccccc1S)C1(Cl)C(Cl)=C(Cl)C2(Cl)C1(Cl)Cl (stereo not given)	195 to 198
CC(C)COc1c(-c2ccc(S(C)(=O)=O)c(F)c2)cnn(-c2cccc(Cl)c2)c1=O	180 to 183
Cc1nc2c(C#N)cnn2c(Cl)c1CCCl	143 to 145
OC1CSC(Oc2cccc(-c3ccncc3)n2)C(O)C1O (stereo not given)	178
CCOc1nn(-c2ccc(C(F)(F)F)cn2)cc1CCCOc1ccc(OC(C)(C)C(=O)O)cc1	91 to 92
CCCCCC(=O)NC[C@H](CC(C)C)NC(=O)[C@H]1O[C@@H]1C(=O)OCC	120 to 121
Cc1nc2ccc(NC3=NCCN3)c(Br)c2nc1C	252 to 254

SMILES	melting point [°C]
O=C(O)c1ccc(-c2ccc3c(c2)CCN(CCN2CCCC2)C3)cc1	269 to 271
CC(=O)N1CCc2c1cc(C)c(S(=O)(=O)C[N+](=O)[O-])c2C	204
CC(=O)NCN(C(=O)CCl)C(=C(C)C)C(C)C	113 to 114
COC(=O)Cc1noc2cc(F)ccc12	60 to 61
CC(=O)NCC=Cc1ccc2ncnc(Nc3ccc(Oc4ccc(C)nc4)c(Cl)c3)c2c1	254 to 256
CCOc1ccc(-c2nc(=O)c3ccccc3s2)cn1	152 to 156
COC(=O)c1c(-c2ccc(Cl)cc2)c2cc(OCc3ccccc3)ccc2c(=O)n1CC(C)C	166
CC(C)n1nc(-c2c(NCc3ccccn3)nc(N)nc2-c2ccccc2)ccc1=O	196 to 198
CN1C(=O)c2cscc2Nc2ccccc21	195 to 198
C[C@@H](NC(=O)c1c[nH]c2ncc(-c3nn(C)c4cc(F)cc(F)c34)nc12)C(=O)N1CC(C#N)C1	235 to 265
O=C1NC(=O)C2(N1)C(=O)N(Cc1ccc(Cl)c(Cl)c1)c1ccc([N+](=O)[O-])cc12 (stereo not given)	245 to 246
C=Cc1ccc(C(=O)O)cc1C12CC3CC(CC(C3)C1)C2	315 to 317
CN1CCN(C(=O)c2cc(S(=O)(=O)NC34CC5CC(CC(C5)C3)C4)ccc2N)CC1	214 to 215
Cc1ccc(C(=O)Nc2c(NC(=O)CN3CCCCC3)ccc3c2C(=O)c2ccccc2C3=O)cc1	213 to 214
CC1C(C)(C)c2ccc(O)cc2C1(C)C (stereo not given)	149
CC(C)OC(=O)c1cc(-n2c(=O)[nH]c3c(c2=O)CCC3)c(Br)cc1Br	223 to 226
Fc1ccccc1-c1nc2ncccc2o1	126 to 127
ClC1(c2ccccc2)c2ccccc2-c2ncncc21 (stereo not given)	119 to 120
N#CN=C(Nc1ccc([N+](=O)[O-])cc1O)Nc1ccccc1Cl	163 to 164
O=[N+]([O-])c1ccc2c(c1)N=Cc1ccccc1O2	179 to 181

More lines, now with the values ahead:

melting point [°C]	SMILES
163 to 165	CCOC(=O)Cc1c(C(C)C(=O)O)c2cc(OC)ccc2n1Cc1ccc(Cl)cc1 (stereo not given)
222 to 224	O=S(=O)(c1cccnc1)N1CCC(Nc2nc(Nc3cccc(C(F)(F)F)c3)nc(OCC(F)(F)F)n2)CC1
249 to 251	O=C(O)c1cc(Cl)n2cnnc2c1
160 to 162	CCCCCCCOc1ccc2c(c1)Nc1cccc(S(=O)(=O)N(C)C)c1S2
70 to 71	CCOC(=O)c1ccc(/C=C(\C)c2ccc3c(c2)C(C)(C)CC3(C)C)cc1
148	CC(c1cc(Cl)cc(Cl)c1O)c1cc(F)cc(CO)c1O (stereo not given)
169 to 170	CCCc1nc(C(C)(C)O)c(-c2nnn[nH]2)n1Cc1ccc(-c2ccccc2C(=O)C(=O)O)cc1
117 to 120	CCCCCCOc1cccc(C[C@H](NC(=O)c2cccc(-c3ncco3)c2)[C@H](O)CNCc2cccc(CC)c2)c1
> 230	CC(C)(CO)CNC(=O)c1ccc2c(c1)C(=NNc1ccc(S(N)(=O)=O)cc1)C(=O)N2
60 to 65	O=C=Nc1ccc(C(=S)OC2CCCCC2)c(Cl)c1
78 to 80	CCN(CC)CCNC(=O)c1cccc2cc3c(I)cccc3nc12
66 to 68	Cc1ccc(Nc2ccccc2NC(=O)CCCc2ccc(N=C(N)c3cccs3)cc2)cc1
128 to 130	O=C(c1ccco1)N1CCN(c2cc(-c3ccccc3)c3c(n2)CCCC3)CC1
136 to 137	CC(=O)c1cccc(NC(=O)C2CC2)c1
166 to 170	O=C(CCCCCCC(=O)N1CCN(CC(=O)Nc2nc3ccccc3s2)CC1)NO
94 to 95	COc1ccc(/C=C(\C#N)c2ccccc2Cl)cc1OC1CCCC1
94 to 96	C=C(CC)C(=O)c1ccc(OCC(=O)NCCCCF)c(Cl)c1Cl
118 to 122	CCN1CCC(=O)N(c2ccccc2C(C)C)C1=S
155 to 157	CC(C)N(C[C@H](O)[C@H](Cc1ccccc1)NC(=O)c1ccccc1NC(=O)OCc1ccccn1)NC(=O)OC(C)(C)C
154	Cn1nc(Br)c([N+](=O)[O-])c1Br
128	CNC(=O)N(OC)c1ccc(Oc2ccc3sncc3c2)c(Cl)c1
66 to 68	CCOC(=O)Cc1c(C(=O)OCC)c(C)cn1CCOS(C)(=O)=O
167 to 169	COC(=O)C1=C(C)NC(C)=C(C(=O)OCCCCCCOc2cc(-c3ccc4c(c3)OCO4)[nH]n2)C1c1cccc([N+](=O)[O-])c1 (stereo not given)
136	CCc1nnc(-c2ccc(OC)cc2)n1-c1ccc(N(C)C)cc1
202 to 204	CC(=O)N1N=C(c2ccc([N+](=O)[O-])cc2)c2cc3c(cc2C=C1C)OCCOC3
108 to 109	O=C(O)CCNc1cccc(Br)n1
133 to 135	CC(C)Oc1cc(-n2c(=O)[nH]c(C(F)(F)F)c(F)c2=O)c(F)cc1Cl
123 to 124	CCN(CC)C(=O)c1cc(-c2ccccc2)c2ccccc2c1
120 to 121	N#Cc1cn(-c2c(Cl)cc(C(F)(F)F)cc2Cl)nc1F
77.5 to 78.5	CC(C)(C)OC(=O)N(OCc1ccccc1)C(=O)OC(C)(C)C
